Measured values: patent EP1457483A1, “Cationic lipids with serine backbone” (Ruhr-Universität Bochum, priority 2003, dated 2004)

System: COS-7 cells
Assay: Automated lipofection screening: GFP-luciferase reporter gene transfer (luciferase activity per protein content)
Assay type: cell-based, African green monkey
Settings: for Maximum transfection efficiency, MW (mean value), Helper lipid: DOPE / Maximum transfection efficiency, MW (mean value), Helper lipid: CHOL / Maximum transfection efficiency, MW (mean value), Helper lipid: without: pEGFPLuc plasmid, point is thousands separator; for Maximum transfection efficiency, MW (mean value), Helper lipid: DOPE: cationic/helper lipid 1:0.5 with DOPE; for Maximum transfection efficiency, MW (mean value), Helper lipid: DOPE / Maximum transfection efficiency, MW (mean value), Helper lipid: CHOL: at the LDR giving the maximum; for Maximum transfection efficiency, MW (mean value), Helper lipid: CHOL: cationic/helper lipid 1:0.5 with cholesterol; for Maximum transfection efficiency, MW (mean value), Helper lipid: without: no helper lipid, at the LDR (1:1-15:1) giving the maximum; for times higher activity in only one of the helper lipid combinations: best combination against the other combinations
Method: Screening the combinatorial lipid library for lipofection properties: Goal of this first step was to compare transfection efficiency of these structurally related cationic lipids with systematically modified hydrocarbon chain compositions for the development of suitable lipofection reagents and protocols and to study the relationship between structure and transfection efficiency of this new class of cationic lipids for gene transfer. All lipids (MS-1 to MS-50, table 1) were tested using a standard protocol: From each lipid, twenty four different lipoplexes were formed containing either no helper lipid or the helper lipids DOPE and CHOL at molar amounts (1:0.5), respectively, using eight different lipid:DNA-charge ratios (LDR) from 1:1 - 15:1, resulting in a lipofection profile for each lipid. The COS-7 cell-line was used for this lipofection study since COS-7 is easy to transfect and differences between the lipids are easy to identify.
Cell culture: SV40 transformed African green monkey kidney cell line COS-7 (ATCC CRL-1651) was routinely passaged in DMEM (GIBCO BRL, Karlsruhe, Germany), respectively, supplemented with 1% L-glutamin solution (100x), 1% Penicillin/Streptomycin solution (100x) (GIBCO BRL, Karlsruhe, Germany), and 10% FCS (BioWhittaker, Verviers, Belgium) at 37°C with 5% CO2 in humidified atmosphere. For the screening cells were maintained in 96-well culture plates (Greiner, Frickenhausen, Germany) in 100 µl DMEM, 10 % FCS, 1 % Penicillin-streptomycin in a humidified atmosphere at 37 °C/5 % CO2. 24 h prior to transfection, the cells were seeded into the microtiter plate at 10,000 cells per well to reach a confluency of 50 % at the time of transfection. Dendritic cells: Dendritic cells (DC) were derived from highly purified circulating CD14(+) monocytes: In a first step, peripheral blood mononuclear leukocytes (PBL) from healthy control persons were isolated by Ficoll-Paque (Pharmacia Biotech AB, Uppsala, Sweden) density centrifugation. The following immunomagnetic purification of the monocytes from PBL was performed using CD14 Microbeads and MiniMACS high gradient magnetic separation columns (Miltenyi Biotech, Bergisch Gladbach, Germany) according to manufacturer's instructions. Isolated monocytes (5 x 10^5/well) were cultured in RPMI supplemented with 10 % FCS, or serum-free Macrophage-SFM medium (GIBCO BRL, Karlsruhe, Germany) supplemented with human recombinant GM-CSF (0.05µg/ml) and IL-4 (0.025µg/ml) (PromoCell, Heidelberg, Germany) in 6-well plates. Aliquots of the cells were reanalyzed by FACS with anti-CD14 mAbs (Pharmingen, San Diego, CA). After 5-6 days non-adherent cells were collected and purity of DCs was determined by FACS analysis using a FACSort flow cytometer (Becton Dickinson, Mountain View, CA) and the CellQuest software for data processing as recently described (Jantscheff, P. et al., J. Immunol. Methods 163(1):91-7 (1993)).

Structure (SMILES): CCCCCCCCCCCCN(CCCCCCCCCCCC)[C@@H](CO)C(=O)NCCCN [compound 6]
- Maximum transfection efficiency, MW (mean value), Helper lipid: DOPE: 6.392 RLU
- Maximum transfection efficiency, MW (mean value), Helper lipid: CHOL: 583 RLU
- Maximum transfection efficiency, MW (mean value), Helper lipid: without: 944 RLU

Structure (SMILES): CCCCCCCCCCCCCCCC[N+](C)(CCCCCCCCCCCCCCCC)[C@@H](CO)C(=O)NCCCCN [compound 38]
- Maximum transfection efficiency, MW (mean value), Helper lipid: DOPE: 71.641 RLU
- Maximum transfection efficiency, MW (mean value), Helper lipid: CHOL: 156.698 RLU
- Maximum transfection efficiency, MW (mean value), Helper lipid: without: 30.747 RLU

Structure (SMILES): CCCCCCCC/C=C\CCCCCCCC[N+](C)(CCCCCCCC/C=C\CCCCCCCC)[C@@H](CO)C(=O)NCCCCN [compound 40]
- Maximum transfection efficiency, MW (mean value), Helper lipid: DOPE: 48.692 RLU
- Maximum transfection efficiency, MW (mean value), Helper lipid: CHOL: 119.285 RLU
- Maximum transfection efficiency, MW (mean value), Helper lipid: without: 12.263 RLU

Structure (SMILES): CCCCCCCC/C=C\CCCCCCCCN(CCCCCCCC/C=C\CCCCCCCC)[C@@H](CO)C(=O)NCCCCN [compound 15]
- Maximum transfection efficiency, MW (mean value), Helper lipid: DOPE: 340.414 RLU
- Maximum transfection efficiency, MW (mean value), Helper lipid: CHOL: 243.273 RLU
- Maximum transfection efficiency, MW (mean value), Helper lipid: without: 232.694 RLU

Structure (SMILES): CCCCCCCCCCCCCCCCN(CCCCCCCCCCCCCCCC)[C@@H](CO)C(=O)NCCCCCCN [compound 23]
- Maximum transfection efficiency, MW (mean value), Helper lipid: DOPE: 27.118 RLU
- Maximum transfection efficiency, MW (mean value), Helper lipid: CHOL: 16.398 RLU
- Maximum transfection efficiency, MW (mean value), Helper lipid: without: 14.969 RLU

Structure (SMILES): CCCCCCCCCCCCN(CCCCCCCCCCCC)[C@@H](CO)C(=O)NCCN [compound 1]
- Maximum transfection efficiency, MW (mean value), Helper lipid: DOPE: 172.116 RLU
- Maximum transfection efficiency, MW (mean value), Helper lipid: CHOL: 264.581 RLU
- Maximum transfection efficiency, MW (mean value), Helper lipid: without: 211.937 RLU

Structure (SMILES): CCCCCCCCCCCCCCCCCCN(CCCCCCCCCCCCCCCCCC)[C@@H](CO)C(=O)NCCCCN [compound 14]
- Maximum transfection efficiency, MW (mean value), Helper lipid: DOPE: 11.715 RLU
- Maximum transfection efficiency, MW (mean value), Helper lipid: CHOL: 42.270 RLU
- Maximum transfection efficiency, MW (mean value), Helper lipid: without: 1.956 RLU

Structure (SMILES): CCCCCCCCCCCCCCCCCCN(CCCCCCCCCCCCCCCCCC)[C@@H](CO)C(=O)NCCCCCN [compound 19]
- Maximum transfection efficiency, MW (mean value), Helper lipid: DOPE: 11.743 RLU
- Maximum transfection efficiency, MW (mean value), Helper lipid: CHOL: 45.026 RLU
- Maximum transfection efficiency, MW (mean value), Helper lipid: without: 1.118 RLU

Structure (SMILES): CCCCCCCCCCCCCCCC[N+](C)(CCCCCCCCCCCCCCCC)[C@@H](CO)C(=O)NCCN [MS-28]
- times higher activity in only one of the helper lipid combinations: 2.5 - 11.5 times

Structure (SMILES): CCCCCCCCCCCCCCCCN(CCCCCCCCCCCCCCCC)[C@@H](CO)C(=O)NCCCCN [compound 13]
- Maximum transfection efficiency, MW (mean value), Helper lipid: DOPE: 30.635 RLU
- Maximum transfection efficiency, MW (mean value), Helper lipid: CHOL: 42.604 RLU
- Maximum transfection efficiency, MW (mean value), Helper lipid: without: 15.287 RLU

Structure (SMILES): CCCCCCCCCCCCCCCC[N+](C)(CCCCCCCCCCCCCCCC)[C@@H](CO)C(=O)NCCN [compound 28]
- Maximum transfection efficiency, MW (mean value), Helper lipid: DOPE: 190.444 RLU
- Maximum transfection efficiency, MW (mean value), Helper lipid: CHOL: 461.747 RLU
- Maximum transfection efficiency, MW (mean value), Helper lipid: without: 171.272 RLU

Structure (SMILES): CCCCCCCC/C=C\CCCCCCCC[N+](C)(CCCCCCCC/C=C\CCCCCCCC)[C@@H](CO)C(=O)NCCCCCCN [compound 50]
- Maximum transfection efficiency, MW (mean value), Helper lipid: DOPE: 39.590 RLU
- Maximum transfection efficiency, MW (mean value), Helper lipid: CHOL: 70.812 RLU
- Maximum transfection efficiency, MW (mean value), Helper lipid: without: 17.315 RLU

Structure (SMILES): CCCCCCCCCCCCCC[N+](C)(CCCCCCCCCCCCCC)[C@@H](CO)C(=O)NCCCCCCN [compound 47]
- Maximum transfection efficiency, MW (mean value), Helper lipid: DOPE: 50.115 RLU
- Maximum transfection efficiency, MW (mean value), Helper lipid: CHOL: 56.974 RLU
- Maximum transfection efficiency, MW (mean value), Helper lipid: without: 533 RLU

Structure (SMILES): CCCCCCCCCCCCCCCCCC[N+](C)(CCCCCCCCCCCCCCCCCC)[C@@H](CO)C(=O)NCCCCCN [compound 44]
- Maximum transfection efficiency, MW (mean value), Helper lipid: DOPE: 1.712 RLU
- Maximum transfection efficiency, MW (mean value), Helper lipid: CHOL: 28.104 RLU
- Maximum transfection efficiency, MW (mean value), Helper lipid: without: 3.542 RLU

Structure (SMILES): CCCCCCCCCCCC[N+](C)(CCCCCCCCCCCC)[C@@H](CO)C(=O)NCCN [compound 26]
- Maximum transfection efficiency, MW (mean value), Helper lipid: DOPE: 846 RLU
- Maximum transfection efficiency, MW (mean value), Helper lipid: CHOL: 16.919 RLU
- Maximum transfection efficiency, MW (mean value), Helper lipid: without: 3.196 RLU

Structure (SMILES): CCCCCCCCCCCCCCN(CCCCCCCCCCCCCC)[C@@H](CO)C(=O)NCCN [compound 2]
- Maximum transfection efficiency, MW (mean value), Helper lipid: DOPE: 73.117 RLU
- Maximum transfection efficiency, MW (mean value), Helper lipid: CHOL: 297.074 RLU
- Maximum transfection efficiency, MW (mean value), Helper lipid: without: 362.300 RLU

Structure (SMILES): CCCCCCCCCCCC[N+](C)(CCCCCCCCCCCC)[C@@H](CO)C(=O)NCCCCCCN [compound 46]
- Maximum transfection efficiency, MW (mean value), Helper lipid: DOPE: 560 RLU
- Maximum transfection efficiency, MW (mean value), Helper lipid: CHOL: 766 RLU
- Maximum transfection efficiency, MW (mean value), Helper lipid: without: 956 RLU

Structure (SMILES): CCCCCCCCCCCCCCCCCC[N+](C)(CCCCCCCCCCCCCCCCCC)[C@@H](CO)C(=O)NCCN [MS-29]
- times higher activity in only one of the helper lipid combinations: 2.5 - 11.5 times

Structure (SMILES): CCCCCCCCCCCCCCN(CCCCCCCCCCCCCC)[C@@H](CO)C(=O)NCCCCCN [compound 17]
- Maximum transfection efficiency, MW (mean value), Helper lipid: DOPE: 453.572 RLU
- Maximum transfection efficiency, MW (mean value), Helper lipid: CHOL: 237.556 RLU
- Maximum transfection efficiency, MW (mean value), Helper lipid: without: 249.143 RLU

Structure (SMILES): CCCCCCCCCCCCCCCC[N+](C)(CCCCCCCCCCCCCCCC)[C@@H](CO)C(=O)NCCCCCCN [compound 48]
- Maximum transfection efficiency, MW (mean value), Helper lipid: DOPE: 73.318 RLU
- Maximum transfection efficiency, MW (mean value), Helper lipid: CHOL: 96.148 RLU
- Maximum transfection efficiency, MW (mean value), Helper lipid: without: 62.022 RLU

Structure (SMILES): CCCCCCCCCCCCN(CCCCCCCCCCCC)[C@@H](CO)C(=O)NCCCCN [compound 11]
- Maximum transfection efficiency, MW (mean value), Helper lipid: DOPE: 2.621 RLU
- Maximum transfection efficiency, MW (mean value), Helper lipid: CHOL: 327 RLU
- Maximum transfection efficiency, MW (mean value), Helper lipid: without: 293 RLU

Structure (SMILES): CCCCCCCCCCCCN(CCCCCCCCCCCC)[C@@H](CO)C(=O)NCCCCCN [compound 16]
- Maximum transfection efficiency, MW (mean value), Helper lipid: DOPE: 49.071 RLU
- Maximum transfection efficiency, MW (mean value), Helper lipid: CHOL: 45.849 RLU
- Maximum transfection efficiency, MW (mean value), Helper lipid: without: 442 RLU

Structure (SMILES): CCCCCCCCCCCCCCCCCCN(CCCCCCCCCCCCCCCCCC)[C@@H](CO)C(=O)NCCCCCCN [compound 24]
- Maximum transfection efficiency, MW (mean value), Helper lipid: DOPE: 21.009 RLU
- Maximum transfection efficiency, MW (mean value), Helper lipid: CHOL: 20.328 RLU
- Maximum transfection efficiency, MW (mean value), Helper lipid: without: 920 RLU

Structure (SMILES): CCCCCCCCCCCCCCCCN(CCCCCCCCCCCCCCCC)[C@@H](CO)C(=O)NCCCN [compound 8]
- Maximum transfection efficiency, MW (mean value), Helper lipid: DOPE: 38.086 RLU
- Maximum transfection efficiency, MW (mean value), Helper lipid: CHOL: 22.428 RLU
- Maximum transfection efficiency, MW (mean value), Helper lipid: without: 6.244 RLU

Structure (SMILES): CCCCCCCC/C=C\CCCCCCCC[N+](C)(CCCCCCCC/C=C\CCCCCCCC)[C@@H](CO)C(=O)NCCN [compound 30]
- Maximum transfection efficiency, MW (mean value), Helper lipid: DOPE: 57.187 RLU
- Maximum transfection efficiency, MW (mean value), Helper lipid: CHOL: 251.177 RLU
- Maximum transfection efficiency, MW (mean value), Helper lipid: without: 99.415 RLU
